Data as given in patent US6130053A, “Method for selecting compounds for inhibition of neoplastic lesions” (priority 1999, dated 2000).
Entries after “also recorded” stand apart in the source; their conditions may differ.

Key:
[1] = system: HT-29 cells; test: Growth inhibition of HT-29 cells; assay type: cell-based, human; settings: HT-29
[2] = system: PSA (prostate specific antigen) level; test: Human clinical trial post-prostatectomy, PSA level; assay type: in vivo
Protocol: A separate clinical trial was also performed on male patients who had prostate cancer, and as a result had their prostates removed. The study was conducted in patients with detectable PSA (prostate specific antigen) levels that were rising following radical prostatectomy, indicating recurrence of prostate cancer.
96 patients were enrolled in the prostate study: a double-blind, placebo-controlled, multi-center trial involving exisulind administered to the drug-receiving patients at 500 mg/day. […] Although a rising level of PSA is not itself a disease condition, it is widely regarded in the medical community as a surrogate marker indicative of the presence of recurrence of prostate cancer in such men.
In addition to performing an analysis based on the differences in mean PSA levels between the exisulind and placebo groups as a whole, the interim analysis included subgroup analysis. The patients in the study were classified into high, intermediate and low risk groups in terms of their risk of developing metastatic disease. This classification was performed by a researcher at Johns Hopkins University, using the methodology published by them and other Johns Hopkins' researchers in the Journal of the American Medical Association (JAMA May 5, 1999, pp. 1591-97). To ascertain which study patients fell into which risk group, medical histories were supplied to the researcher who was blinded as to whether patients were on drug or placebo; they assigned study patients to the appropriate risk groups according to the above referenced published methodology.

[3] = system: colon, breast, lung, prostate, kidney, and melanoma neoplasias; settings: cited from earlier work
[4] = system: PKG activity in SW480 cells; test: PKG activity in SW480 cells (phosphorylation of GST-cGB-PDE5); assay type: cell-based, human; settings: 48 hrs; with and without added cGMP; exisulind 200-600 μM, E4021 0.1-10 μM
Protocol: Two different types of PDE inhibitors were evaluated for their effects on PKG in neoplastic cells. […], exisulind, was evaluated since it is anti-neoplastic. […] No. 09/173,375 to Liu et al filed Oct. 15, 1998. To test the effect of cGMP-specific PDE inhibition on neoplasia containing the APC mutation, SW480 colon cancer cells were employed. SW 480 is known to contain the APC mutation. […] The liquid media are aspirated from the dishes (the cells will attach themselves to the dishes). […] Immediately after the cell lysis buffer is added, the lysed cells are collected by scraping the cells off each dish. The cell lysate from each dish is transferred to a microfuge tube, and the microfuge tubes are incubated at 4° C. for 15 minutes while gently agitating the microfuge tubes to allow the cells to lyse completely. After lysis is complete, the microfuge tubes are centrifuged full speed (14,000 r.p.m.) for 15 minutes. The supernatant from each microfuge tube is transferred to a fresh microfuge tube. A protein assay is then performed on the contents of each microfuge tube because the amount of total protein will be greater in the control than in the drug-treated samples, if the drug inhibits cell growth. Obviously, if the drug does work, the total protein in the drug-treated samples should be […] control. […]

CC1=C(CC(=O)O)c2cc(F)ccc2/C1=C\c1ccc(S(C)(=O)=O)cc1 [Exisulind, 5-fluoro-2-methyl-1-(p-methylsulfonylbenzylidene)-3-indenylacetic acid]
tumor cell growth inhibition [1]: capable of inhibiting tumor cell growth
PSA levels vs placebo ([2]; 500 mg/day): significantly reduced as compared with the PSA levels of the placebo-treated group; also recorded: statistically significant differences in mean PSA levels between exisulind and placebo patients in both high and intermediate risk groups
Mean PSA level, High Risk ([2]; 500 mg/day, High Risk, placebo 4.98): 2.91
Mean PSA level, Intermediate Risk ([2]; 500 mg/day, Intermediate Risk, placebo 6.24): 2.95
Mean PSA level, Overall ([2]; 500 mg/day, Overall, placebo 4.49): 2.85
"p" value, mean PSA, High Risk ([2]; vs placebo, High Risk): 0.0002
"p" value, mean PSA, Intermediate Risk ([2]; vs placebo, Intermediate Risk): 0.0053
"p" value, mean PSA, Overall ([2]; vs placebo, Overall): 0.0004
reported anti-neoplastic effects [3]: anti-neoplastic effects on colon, breast, lung, prostate, kidney, and melanoma neoplasias
PKG activity relative to control [4]: causes PKG activity to increase in a dose-dependent manner
